# Measurements from patent publication US20240091169A1, “POL[…] FOR TREATING INFLAMMATORY DISEASES” (UNIVERSITY OF SOUTH CAROLINA, priority 2022, published 2024).
# How the values were obtained:
# [1] = tested on: BMDMs treated with C26 CM; assay: Survival of BMDMs cultured with C26 tumor conditioned media; assay type: cell-based, C57BL/6 mice; details: 48 hr
# Procedure: Bone marrow-derived macrophages (BMDMs) were isolated from healthy 10-14-week-old C57BL/6 male mice. Briefly, mice were euthanized by isoflurane overdose. Femurs were cleared of muscle and debris. The epiphyses of the femurs were cut and placed knee-down and spun down in a 1.5 mL tube. Bone marrow was collected and resuspended in complete DMEM (cDMEM; 10% FBS, 1% penicillin/streptomycin) and passed through two 100 μm strainers. Cells were plated on an untreated 10 cm dish in cDMEM and allowed to incubate at 37° C. for 4 hr. Adherent/mature monocytes and dendritic cells were discarded, while floating/immature monocytes were collected. Cells were subjected to RBC lysis and resuspended in bone marrow maintenance media (BMMM; 20% L929-conditioned media in cDMEM). Cells were then plated on surface-treated 6-well plates at a 250 k cells/well seeding density. On day 3, fresh BMMM was added. On day 5, media was aspirated and fresh BMMM was added. […] Cells were stained and analyzed for macrophages via flow cytometry as described above with the addition of analyzing macrophage phenotypes. From the CD11b^+CD68^+ macrophage population, macrophage phenotypes were determined based on CD206 and CD11c expression. […] All cells were measured using a FACS Aria II (BD) and analyzed using FlowJo (BD Biosciences). […]
# [2] = tested on: DSS-induced acute colitis; assay: DSS mouse model, Experiment 2: acute colitis; assay type: in vivo, C57BL/6 female mice
# Procedure: Experiment 2—Acute Colitis: 14-week-old C57BL/6 female mice were given 1 cycle of 2% DSS in drinking water for 7 days, immediately followed by 7 days of regular drinking water. Either vehicle or panaxynol was administered 3×/week beginning on the day prior to the first DSS cycle (day −1) until study completion (FIG. 10A). To ensure the induction of colitis and to quantify disease states, colitis symptoms were monitored every other day using the same DAI as above. Mice were euthanized on day 14—one day after the last dose of panaxynol was given. Colons were placed in the appropriate buffers for further analysis. Data presented in FIGS. 10-14 (i.e., histology, immunofluorescence, electron microscopy, and flow cytometry) was obtained using colonic tissue from 2 cohorts of Experiment 2—Acute Colitis.
# Panaxynol (PA; C17H24O) was purchased from Biopurify Pytochemicals Ltd in sealed 5 mg/mL vials in pure 95% ethanol and stored at −20° C. PA was prepared fresh on the day of treatment by diluting in H2O to 1 mg/mL for administration (p.o.) at a dosage of 2.5 mg/kg. This dosage was chosen following a pilot dose-response study to determine PA's efficacy. […]
# All mice underwent the same symptom monitoring and scoring. […] Symptom scores were calculated by scoring percent body weight loss, stool consistency, and rectal bleeding as previously described. Briefly, fresh colonic evacuates were smeared onto “Hemoccult” tape (Beckman Coulter) to assess severity of diarrhea and were tested with developer (Beckman Coulter) to assess rectal bleeding. Stool consistency was scored as follows: solid cylinder (0), soft cylinder and easily spreadable (2), and noncylindrical or runny (4). Bleeding was scored as follows: no positive detection of blood (0), detection of blood but not grossly visible (2), and gross visibility of blood (4). Body weight was calculated as percent bodyweight loss: 0%-5% (0), 6%-10% (1), 11%-15% (2), 15%-20% (3), 20%-25% (4), and >25% (5). Scores of all three categories were summed to obtain an overall symptom score for each mouse.
# Prior to euthanasia, colonoscopies were performed (n=3/group) to visualize the colonic tissue and quantify the severity of disease (colitis and colorectal tumors) using an established protocol. Briefly, mice were anesthetized with isoflurane to perform a detailed endoscopic examination in which the endoscope was gently inserted into the rectum and through the anus. Air was applied to slowly set apart the intestinal walls for examination. As the scope advanced, pictures were taken frequently and the following were meticulously assessed and scored by the blinded primary investigator using the well-established scoring system to integrate evaluation of intestinal inflammation (i.e., focal lesions (edematous areas of mucosa, erosions/reddened areas, ulcers), perianal region findings (diarrhea, bloody anal discharge, or prolapse), transparency of the colonic wall (visualization of the intramural blood vessels), and presence of intestinal bleeding) and tumors. Scoring was performed as previously described with no modifications. Upon completion of colonoscopies, mice were placed on a warm pad set at 37° C. for 5 min.
# Lamina propria (LP) cells were isolated from colons to be used for flow cytometry to identify immune cell populations within the colonic LP. Colons were rinsed in sterile ice-cold PBS and minced with scissors. Tissues were subjected to a cell dissociation solution (HBSS without Ca^2+Mg^2+ containing 5 mM EDTA and 1 mM DTT) in a shaking incubator for 30 min at 37° C. Tubes containing dissociated tissues were vortexed and passed through a 100 μm cell strainer; flow through containing intestinal epithelial cells (IECs) was discarded. Remaining tissue was subjected to a cell digestion buffer (HBSS with Ca^2+Mg^2+ containing 5% FBS, 5 mg/mL Collagenase D, 50 μg/mL DNase 1, and 1 U/mL Dispase) in a shaking incubator for 30 min at 37° C. Tubes were vortexed and passed through a 40 μm cell strainer. […]
structure (smiles),measurement,setting,value
"C=CC(O)C#CC#CC/C=C\CCCCCCC (stereo in doubt) [PA, 3(R)-(9Z)-heptadeca-1,9-dien-4,6-diyn-3-ol]",reduction of macrophage survival,[1]; 1 μM PA,31.5%
same,reduction of macrophage survival,[1]; 5 μM PA,45.3%
same,goblet cell count per crypt,"[2]; Alcian Blue, DSS+Veh -75% vs Control, p=0.0003",rescued
same,rectal bleeding,"[2]; DAI, vs DSS+Veh",decreased
same,stool consistency,"[2]; DAI, vs DSS+Veh",improved
same,average crypt width,"[2]; H&E, DSS+Veh +124% vs Control, Pax vs Control p=0.641",not different from Control
same,reduction in inflammation (endoscopic score),"[2]; day 14, vs DSS+Veh, p=0.012",63%
same,reduction in total endoscopic scores,"[2]; day 14, vs DSS+Veh, p=0.014",62%
same,reduction in total lesions (endoscopic score),"[2]; day 14, vs DSS+Veh, p=0.029",58%
same,reduction in erosions (endoscopic score),"[2]; day 14, vs DSS+Veh, p=0.033",55%
same,reduction in ulcers (endoscopic score),"[2]; day 14, vs DSS+Veh, p=0.047",62%
same,widening and gaping of the crypts (SEM 3000×),[2]; distal colon,partially rescued
same,edema in the intercellular space of IECs (TEM),"[2]; distal colon, edema seen only in DSS+Veh",no edema
same,mucus on mucosa (SEM 2000×),"[2]; distal colon, vs DSS+Veh","more areas of mucus formation, preservation, and abundance"
same,body weight,"[2]; end of study, not significant vs DSS+Veh 18.4±0.6, p=0.383",19.1 ± 0.4 g
same,CD45+CD4+ helper T-cells in colonic LP,"[2]; flow cytometry, between DSS-treated groups, p=0.446",no significant differences
same,M1 macrophages in colonic LP,"[2]; flow cytometry, vs DSS+Veh, p=0.011",decreased
same,relative abundance of naïve (M0) macrophages in colonic LP,"[2]; flow cytometry, vs DSS+Veh, p=0.019",increased
same,TCRβ+FoxP3+ T-regs in colonic LP,"[2]; flow cytometry, vs DSS+Veh, p=0.027",significantly increased
same,M2 macrophages in colonic LP,"[2]; flow cytometry, vs DSS+Veh, p=0.041",decreased
same,LiveCD45+ immune cells in colonic LP,"[2]; flow cytometry, vs DSS+Veh, p=0.056, not statistically significant",trending increase
same,CD11b+CD68+ macrophages in colonic LP,"[2]; flow cytometry, vs DSS+Veh, p=0.07, not statistically significant",decrease
same,transitional (M1/M2) macrophages in colonic LP,"[2]; flow cytometry, within DSS-treated groups, p=0.085",no significant differences
same,crypt width distribution curve,"[2]; rightward shift Control to DSS+Veh, FIG. 11C",significantly (p≤0.05) improved
same,DAI scores,"[2]; throughout treatment, vs DSS+Veh",significantly (p≤0.05) improved
